Test results taken from PubChem BioAssay AID2060600 (Molecular Pharmacology Branch, DTP, NCI, 2025).

System: 996289-038-R-J1-PDC complex spheroid viability
Experiment: Anticancer human tumor 996289-038-R-J1-PDC patient-derived colon adenocarcinoma cell line growth inhibition [CLK]
Conditions: for IC50: curve of first compound; for viability, T/C: stronger effect = lower value; active = viability on the fitted dose curve at most 10% of control; inactive = the rest
Summary of the method: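 Patient-derived tumor cells grown as complex spheroids with HUVEC endothelial cells and mesenchymal stem cells, treated with drug combinations. Concentrations descend in half-log steps from near clinical Cmax, or from 10 microM if Cmax unknown.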

[1] = second compound 0.0316 µM, first compound 0.0316 µM
[2] = second compound 0.0316 µM, first compound 0.1 µM
[3] = second compound 0.1 µM, first compound 0.0316 µM
[4] = second compound 0.1 µM, first compound 0.1 µM
[5] = second compound 0.316 µM, first compound 0.0316 µM
[6] = second compound 0.316 µM, first compound 0.1 µM
[7] = second compound 1 µM, first compound 0.0316 µM
[8] = second compound 1 µM, first compound 0.1 µM
[9] = second compound 3.16 µM, first compound 0.0316 µM
[10] = second compound 3.16 µM, first compound 0.1 µM
[11] = second compound 10 µM, first compound 0.0316 µM
[12] = second compound 10 µM, first compound 0.1 µM
[13] = second compound 0.0316 µM, first compound 0.316 µM
[14] = second compound 0.0316 µM, first compound 1 µM
[15] = second compound 0.0316 µM, first compound 3.16 µM
[16] = second compound 0.0316 µM, first compound 10 µM
[17] = second compound 0.1 µM, first compound 0.316 µM
[18] = second compound 0.1 µM, first compound 1 µM
[19] = second compound 0.1 µM, first compound 3.16 µM
[20] = second compound 0.1 µM, first compound 10 µM
[21] = second compound 0.316 µM, first compound 0.316 µM
[22] = second compound 0.316 µM, first compound 1 µM
[23] = second compound 0.316 µM, first compound 3.16 µM
[24] = second compound 0.316 µM, first compound 10 µM
[25] = second compound 1 µM, first compound 0.316 µM
[26] = second compound 1 µM, first compound 1 µM
[27] = second compound 1 µM, first compound 3.16 µM
[28] = second compound 1 µM, first compound 10 µM
[29] = second compound 3.16 µM, first compound 0.316 µM
[30] = second compound 3.16 µM, first compound 1 µM
[31] = second compound 3.16 µM, first compound 3.16 µM
[32] = second compound 3.16 µM, first compound 10 µM
[33] = second compound 10 µM, first compound 0.316 µM
[34] = second compound 10 µM, first compound 1 µM
[35] = second compound 10 µM, first compound 3.16 µM
[36] = second compound 10 µM, first compound 10 µM
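Also: spheroids exposed to the agents for 7 days before readout.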

Cn1ncnc1[C@H]1c2n[nH]c(=O)c3cc(F)cc(c23)N[C@@H]1c1ccc(F)cc1 + CN1CCN(c2cc(C(=O)Nc3cc4cc(-c5cnn(C)c5)ccc4cn3)ccn2)CC1
active: viability, T/C (second compound 1 µM, first compound 0.000316 µM) 5.01% | viability, T/C (second compound 1 µM, first compound 0.001 µM) 4.06% | viability, T/C (second compound 1 µM, first compound 0.00316 µM) 4.98% | viability, T/C (second compound 1 µM, first compound 0.01 µM) 6.96% | viability, T/C [7] 6.27% | viability, T/C [8] 4.4% | viability, T/C (second compound 3.16 µM, first compound 0.000316 µM) 0.64% | viability, T/C (second compound 3.16 µM, first compound 0.001 µM) 0.72% | viability, T/C (second compound 3.16 µM, first compound 0.00316 µM) 1.05% | viability, T/C (second compound 3.16 µM, first compound 0.01 µM) 0.84% | viability, T/C [9] 0.71% | viability, T/C [10] 1.35% | viability, T/C (second compound 10 µM, first compound 0.000316 µM) 0.97% | viability, T/C (second compound 10 µM, first compound 0.001 µM) 0.51% | viability, T/C (second compound 10 µM, first compound 0.00316 µM) 1.37% | viability, T/C (second compound 10 µM, first compound 0.01 µM) 2.6% | viability, T/C [11] 0.38% | viability, T/C [12] 0.92%
inactive: viability, T/C (second compound 0.0316 µM, first compound 0.000316 µM) 104% | viability, T/C (second compound 0.0316 µM, first compound 0.001 µM) 102% | viability, T/C (second compound 0.0316 µM, first compound 0.00316 µM) 102% | viability, T/C (second compound 0.0316 µM, first compound 0.01 µM) 107% | viability, T/C [1] 101% | viability, T/C [2] 80.4% | viability, T/C (second compound 0.1 µM, first compound 0.000316 µM) 88.8% | viability, T/C (second compound 0.1 µM, first compound 0.001 µM) 96.9% | viability, T/C (second compound 0.1 µM, first compound 0.00316 µM) 87.6% | viability, T/C (second compound 0.1 µM, first compound 0.01 µM) 97% | viability, T/C [3] 95.5% | viability, T/C [4] 86.8% | viability, T/C (second compound 0.316 µM, first compound 0.000316 µM) 72.3% | viability, T/C (second compound 0.316 µM, first compound 0.001 µM) 70.2% | viability, T/C (second compound 0.316 µM, first compound 0.00316 µM) 74.6% | viability, T/C (second compound 0.316 µM, first compound 0.01 µM) 71.6% | viability, T/C [5] 67.9% | viability, T/C [6] 53%
< 0.316 nM: IC50 (second compound 1 µM) | IC50 (second compound 3.16 µM) | IC50 (second compound 10 µM)
> 100 nM: IC50 (second compound 0.0316 µM) | IC50 (second compound 0.1 µM) | IC50 (second compound 0.316 µM)

Nc1ccn(C2OC(CO)C(O)C2(F)F)c(=O)n1 (stereo unspecified) + CN1CCN(c2cc(C(=O)Nc3cc4cc(-c5cnn(C)c5)ccc4cn3)ccn2)CC1
130 nM: IC50 (second compound 0.316 µM)
active: viability, T/C [7] 4.69% | viability, T/C [8] 4.7% | viability, T/C [25] 3.37% | viability, T/C [26] 6.26% | viability, T/C [27] 3.39% | viability, T/C [28] 3.71% | viability, T/C [9] 1.41% | viability, T/C [10] 1.07% | viability, T/C [29] 1.65% | viability, T/C [30] 1% | viability, T/C [31] 1.01% | viability, T/C [32] 2.06% | viability, T/C [11] 0.95% | viability, T/C [12] 1.01% | viability, T/C [33] 0.41% | viability, T/C [34] 1.58% | viability, T/C [35] 0.37% | viability, T/C [36] 0.35%
< 31.6 nM: IC50 (second compound 1 µM) | IC50 (second compound 3.16 µM) | IC50 (second compound 10 µM)
inactive: viability, T/C [1] 86.7% | viability, T/C [2] 62.6% | viability, T/C [13] 54.5% | viability, T/C [14] 51.5% | viability, T/C [15] 49.1% | viability, T/C [16] 43.4% | viability, T/C [3] 74.6% | viability, T/C [4] 56.4% | viability, T/C [17] 53.2% | viability, T/C [18] 46.9% | viability, T/C [19] 41.2% | viability, T/C [20] 35.8% | viability, T/C [5] 57.7% | viability, T/C [6] 52% | viability, T/C [21] 43.3% | viability, T/C [22] 39.2% | viability, T/C [23] 36.2% | viability, T/C [24] 26%
851 nM: IC50 (second compound 0.0316 µM)
406 nM: IC50 (second compound 0.1 µM)

O=c1[nH]cc(F)c(=O)[nH]1 + CN1CCN(c2cc(C(=O)Nc3cc4cc(-c5cnn(C)c5)ccc4cn3)ccn2)CC1
< 31.6 nM: IC50 (second compound 1 µM) | IC50 (second compound 3.16 µM) | IC50 (second compound 10 µM)
inactive: viability, T/C [1] 100% | viability, T/C [2] 91.3% | viability, T/C [13] 76.4% | viability, T/C [14] 74.4% | viability, T/C [15] 74.2% | viability, T/C [16] 71% | viability, T/C [3] 101% | viability, T/C [4] 94.4% | viability, T/C [17] 74.2% | viability, T/C [18] 65.5% | viability, T/C [19] 60.8% | viability, T/C [20] 58.4% | viability, T/C [5] 77.1% | viability, T/C [6] 68.1% | viability, T/C [21] 56.8% | viability, T/C [22] 56.7% | viability, T/C [23] 51.7% | viability, T/C [24] 47.3%
active: viability, T/C [7] 4.52% | viability, T/C [8] 5.71% | viability, T/C [25] 5.87% | viability, T/C [26] 6.18% | viability, T/C [27] 6.47% | viability, T/C [28] 7.26% | viability, T/C [9] 1.22% | viability, T/C [10] 0.94% | viability, T/C [29] 0.86% | viability, T/C [30] 1.6% | viability, T/C [31] 0.83% | viability, T/C [32] 0.72% | viability, T/C [11] 0.56% | viability, T/C [12] 0.79% | viability, T/C [33] 0.98% | viability, T/C [34] 1.55% | viability, T/C [35] 0.45% | viability, T/C [36] 0.41%
4880 nM: IC50 (second compound 0.316 µM)
> 10000 nM: IC50 (second compound 0.0316 µM) | IC50 (second compound 0.1 µM)
